Data published in US8148431B2, “Osteogenesis promoter containing β-cryptoxanthin as the active ingredient” (Kemin Health, L.C., priority 2002, dated 2012).
Marks after values point to notes of the source that are not given here.

Tests used:
Format in all cases: cell-based, Wistar male rats
[1] = test system: diaphysis tissue of the femur (cortical bone); assay: Bone calcium level in cultured femoral diaphysis tissue pieces; details: diaphysis tissue; for Bone calcium level: mean ± SE; for Significant effect on increasing calcium level in the bone tissue (in words): Table 3 concentrations
Description: (§1) The femurs were extracted from rats (Wistar male rats; 4 to 5 weeks old) (purchased from Japan SLC Co., Ltd. and fed with solid Oriental yeast (MF)) under anesthesia with ether under a germfree condition. The femurs were each washed with 0.25 M sucrose solution, and then divided into the diaphysis (cortical bone) and metaphysis (cancellous bone). The bone tissue pieces were cultured in a culture medium (Dulbecco's modified culture medium containing 5% of glucose; serum-free medium) containing. β-cryptoxanthin, etc. at […] in an incubator filled with 5% CO2-95% air for 48 hours. β-cryptoxanthin used was “β-cryptoxanthin” of Extrasynthase Co., cycloheximide used was “Cycloheximide” of Sigma Co. Ltd., β-carotene was “β-carotene” of Sigma ? , xanthine was “Xanthine” of Sigma Co, Ltd., parathormone was “Parathormone” of Sigma Co. Ltd. and prostaglandin E2 was “Prostaglandin E2” of Sigma Co. Ltd. In the control, only the culture medium was used without β-cryptoxanthin or the like.
(§2) Bone calcium level in the bone tissue was determined. After the culture in the incubator, the tissue pieces were washed with 0.25 M sucrose solution and dried and then the bone was weighed. Then concentrated nitric acid was added to the tissue pieces. After the incineration at 120° C. for 12 hours, the bone calcium level was determined with an atomic absorption photometer (“Perkin-Elmer 303” of Perkin-Elmer Co.).
(§3) The bone component-increasing effect of β-cryptoxanthin was examined. The diaphysis and metaphysis tissue of the femur was cultured in the above-described culture medium containing β-cryptoxanthin (10^−5 to 10^−5 M) for 48 hours. Calcium level in the bone tissue, alkaline phosphatase activity (enzyme for accelerating the bone calcification) and the amount of deoxyribonucleic acid (DNA; index of number of cells in the bone tissue) were determined by the same methods as in Example 1. In each test group, the determination vas conducted 6 to 8 times and the results were represented by the average value and the standard error. The significant difference was determined by Student's t-test. The result was compared with that of the control. When P value was not higher than 0.01 (**) or not higher than 0.05 (*), the results were statistically significant.

[2] = test system: metaphysis tissue of the femur (cancellous bone); assay: Bone calcium level in cultured femoral metaphysis tissue pieces; details: metaphysis tissue; for Bone calcium level: mean ± SE; for Significant effect on increasing calcium level in the bone tissue (in words): Table 3 concentrations
Description: as §1, §2
as §3, with “The diaphysis and metaphysis tissue of the femur was cultured in the above-described culture medium containing β-cryptoxanthin (10^−5 to 10^−5 M) for 48 hours.” left out

[3] = test system: diaphysis tissue of the femur (cortical bone); assay: Bone alkaline phosphatase activity in cultured femoral diaphysis tissue pieces; details: Table 2 (protein synthesis inhibitor experiment), diaphysis tissue, 10^−6 M (each agent), mean ± SE, n=6
Description: as §1
(§4) The expression level of alkaline phosphatase, which is the most important enzyme for the acceleration of the calcification of bones, was examined. The tissue pieces cultured in the incubator were washed in 0.25 M sucrose solution, then pulverized in 3 ml of 65 mM barbital buffer (pH 7-4) and treated with ultrasonic waves. The resultant liquid was centrifuged. The supernatant, as the enzyme solution, was determined by a method of Walter ad Schutt in Method of Enzymatic Analysis, Vol. 1-2, p. 856, Academic Press, New York, 1965). Namely, this method was carried out as follows: p-nitrophenylphosphoric acid was used as the substrate. 0.05 ml of the enzyme solution was added to 2 ml of diethanolamine buffer (pH 9.8). After the incubation at 37° C. for 30 minutes, 10 ml of 0.05 N NaOH was added to the mixture. The absorbance (405 nm) was determined with a spectrophotometer to determine bone alkaline phosphatase activity of a bone remedy or a compound known to be effective for the bones.
as §3

[4] = test system: metaphysis tissue of the femur (cancellous bone); assay: Bone alkaline phosphatase activity in cultured femoral metaphysis tissue pieces; details: Table 2 (protein synthesis inhibitor experiment), metaphysis tissue, 10^−6 M (each agent), mean ± SE, n=6
Description: as §1, §4, §3

[5] = test system: diaphysis tissue of the femur (cortical bone); assay: Bone DNA level in cultured femoral diaphysis tissue pieces; details: Table 2 (protein synthesis inhibitor experiment), diaphysis tissue, 10^−6 M (each agent), mean ± SE, n=6
Description: as §1
(§5) DNA level was determined as an index of the number of cells in the bone tissue. After the culture in an incubator, the tissue pieces were washed with 0.25 M sucrose solution and then the wet weight of them was determined. They were pulverized in 4 ml of 0.1 N NaOH. After the osmosis at 4° C. for 24 hours, the liquid mixture was centrifuged. The supernatant was taken as the sample and determined by a method of Ceriotti et al. (J. Biol. Chem., 241; 34-77, 1951). Namely, 1 ml of concentrated hydrochloric acid and 1 ml of 0.04% indole solution were added to 2 ml of the sample and then the resultant mixture was heated to 100° C. in boiling water. After quenching followed by the extraction with 4 ml of chloroform, the chloroform layer was taken to determine bone DNA level with a spectrophotometer (490 nm).
as §3

[6] = test system: metaphysis tissue of the femur (cancellous bone); assay: Bone DNA level in cultured femoral metaphysis tissue pieces; details: Table 2 (protein synthesis inhibitor experiment), metaphysis tissue, 10^−6 M (each agent), mean ± SE, n=6
Description: as §1, §5, §3

[7] = test system: diaphysis tissue of the femur; assay: Bone resorption (PTH or prostaglandin E2): bone calcium level in cultured diaphysis tissue
Description: as §1, §2
(§6) The bone mineral dissolution-inhibiting effect of β-cryptoxanthin was examined. […] PTH also has a pathophysiologic role on the expression of osteoporosis caused by the aging. It is known that prostaglandin E2 also causes physiologic bone mineral dissolution. The diaphysis or metaphysis tissue of the femur was cultured in the presence of 10^−7 M PTH or 10^−5 M prostaglandin E2 for 48 hours and then calcium level in the bone tissue was determined. In another experiment, the culture was conducted in the same manner as that described above in the coexistence of them and β-cryptoxanthin (10^−8 M to 10^−6 M) and then calcium level in the bone tissue was determined. In each test group, the determination was conducted 6 to 8 times and the results were represented by the average value and the standard error. The significant difference was determined by Student's t-test. The result was compared with that of the control. When P value was not higher than 0.01 (*) as compared with the control or it is not higher than 0.1 (#) as compared with that of prostaglandin E2, the results were statistically significant.

[8] = test system: metaphysis tissue of the femur; assay: Bone resorption (PTH or prostaglandin E2): bone calcium level in cultured metaphysis tissue
Description: as §1, §2, §6

[9] = Table 2 (protein synthesis inhibitor experiment), 10^−6 M (each agent), n=6
[10] = Comparative Example (Table 3), 10^−6 M, 48 h culture
[11] = Comparative Example (Table 3), 10^−7 M, 48 h culture
[12] = 10^−7 M PTH, 48 h culture, vs control

## C[C@@H]1C[C@@H]([C@H](O)CC2CC(=O)NC(=O)C2)C(=O)[C@@H](C)C1 [Cycloheximide, reference compound]
[1]; [9]
  Bone calcium level: 204.0 ± 15.59 mg/g dry weight
[2]; [9]
  Bone calcium level: 156.4 ± 2.81 mg/g dry weight
[3]
  Bone alkaline phosphatase activity: 534.5 ± 64.2 nmol/min/mg protein
[4]
  Bone alkaline phosphatase activity: 948.8 ± 21.1 nmol/min/mg protein
[5]
  Bone DNA level: 1.299 ± 0.127 mg/g bone wet weight
[6]
  Bone DNA level: 3.001 ± 0.454 mg/g bone wet weight

## CCCCC[C@H](O)/C=C/[C@H]1[C@H](O)CC(=O)[C@@H]1C/C=C\CCCC(=O)O [Prostaglandin E2, reference compound]
[7]; diaphysis tissue, prostaglandin E2 10^−5 M
  Effect of prostaglandin E2 on calcium level in the bone tissue (in words): significant reduction
[7]; diaphysis tissue, prostaglandin E2 10^−5 M alone, 48 h culture
  Bone calcium level: 182.8 ± 4.06* mg/g dry weight
[8]; metaphysis tissue, prostaglandin E2 10^−5 M
  Effect of prostaglandin E2 on calcium level in the bone tissue (in words): significant reduction
[8]; metaphysis tissue, prostaglandin E2 10^−6 M alone, 48 h culture
  Bone calcium level: 163.5 ± 1.47* mg/g dry weight

## Oc1nc(O)c2[nH]cnc2n1 [Xanthine, 2,6-dihydroxypurine, reference compound]
[1]; [10]
  Bone calcium level: 240.2 ± 8.46 mg/g dry weight
[1]; [11]
  Bone calcium level: 228.6 ± 7.08 mg/g dry weight
[1]; 48 h culture
  Significant effect on increasing calcium level in the bone tissue (in words): could not be obtained
[2]; [10]
  Bone calcium level: 188.2 ± 3.34 mg/g dry weight
[2]; [11]
  Bone calcium level: 189.8 ± 3.30 mg/g dry weight
[2]; 48 h culture
  Significant effect on increasing calcium level in the bone tissue (in words): could not be obtained

## CC1=C(/C=C/C(C)=C/C=C/C(C)=C/C=C/C=C(C)/C=C/C=C(C)/C=C/C2=C(C)CCCC2(C)C)C(C)(C)CCC1 [β-carotene, reference compound]
[1]; [10]
  Bone calcium level: 215.6 ± 2.78 mg/g dry weight
[1]; [11]
  Bone calcium level: 232.2 ± 6.66 mg/g dry weight
[1]; 48 h culture
  Significant effect on increasing calcium level in the bone tissue (in words): could not be obtained
[2]; [10]
  Bone calcium level: 189.4 ± 8.06 mg/g dry weight
[2]; [11]
  Bone calcium level: 195.4 ± 10.10 mg/g dry weight
[2]; 48 h culture
  Significant effect on increasing calcium level in the bone tissue (in words): could not be obtained

B1: Parathyroid hormone: peptide hormone secreted from the accessory thyroid, causes bone mineral dissolution (bone resorption); “Parathormone” of Sigma (peptide, UniProt P01270 32-115, looked up)
Parathyroid hormone: SVSEIQLMHNLGKHLNSMERVEWLRKKLQDVHNFVALGAPLAPRDAGSQRPRKKEDNVLVESHEKSLGEADKADVNVLTKAKSQ
modifications: Parathyroid hormone
notes: peptide hormone secreted from the accessory thyroid, causes bone mineral dissolution (bone resorption); “Parathormone” of Sigma
[7]; [12]
  Effect of PTH on calcium level in the diaphysis tissue (in words): significantly reduced
[7]; diaphysis tissue, parathyroid hormone 10^−7 M alone, 48 h culture
  Bone calcium level: 180.0 ± 3.23* mg/g dry weight
[8]; [12]
  Effect of PTH on calcium level in the metaphysis tissue (in words): significantly reduced
[8]; metaphysis tissue, parathyroid hormone 10^−7 M alone, 48 h culture
  Bone calcium level: 167.0 ± 0.96* mg/g dry weight
